According to publication PMC12040169 (PLOS Biology, 2025):

Assay: in vitro
Details: human, hela cells, % viability

SMILES | viability at 28.5 h, 10 µM | viability at 28.5 h, 10 µM (bulk resorufin, single well)
Cc1ccc2c(c1C)NC(=O)CC2c1ccc(F)cc1 (stereo not shown) [CBK288221] | 101% | –
Cc1ccc(Nc2nc(N)nc(-c3cc4ccccc4o3)n2)cc1 [CBK288222] | 105% | –
CCCCN1CC(C(=O)Nc2nccs2)CC1=O (stereo not shown) [CBK288224] | 95.3% | –
CSc1ccccc1C(=O)Nc1nccs1 [CBK288225] | 88.7% | –
Cc1nc(N2CCCC2)ncc1-c1cc(O)nc(N2CCCCC2)n1 [CBK288226] | 92.3% | –
Oc1ccc(-c2oncc2-c2ccccc2)c(O)c1 [CBK288228] | 96.2% | –
Cc1cccc(NC(=O)c2n[nH]c3ccccc23)c1 [CBK288231] | 84.6% | –
O=C1NN=C(c2ccccc2)CC1c1c[nH]c2ccccc12 (stereo not shown) [CBK288235] | 104% | –
CN(C)c1nc(N)nc(COc2ccccc2F)n1 [CBK288236] | 105% | –
O=C1CC(c2ccccc2)c2c(c3ccccc3[nH]c2=O)O1 (stereo not shown) [CBK288237] | 112% | –
COc1cccc(-c2n[nH]c3c2C(c2cccnc2)NC3=O)c1 (stereo not shown) [CBK288238] | 86.3% | –
COc1ccc(Oc2c(C)n[nH]c2-c2ccc(O)cc2O)cc1 [CBK288239] | 96% | –
Cn1nccc1C(=O)N1CCN(c2ncccn2)CC1 [CBK288240] | 90.7% | –
Cc1n[nH]c(C)c1C12CC3CC(CC(CC(=O)O)(C3)C1)C2 [CBK288241] | 92.2% | –
O=C(NCc1ccncc1)C1CC1c1ccccc1 (stereo not shown) [CBK288242] | 107% | –
Cc1cc(NC(=O)Nc2cccc(Cl)c2C)no1 [CBK288245] | 87.3% | –
Cc1cnc(NC(=O)C(C)Oc2ccccc2)s1 (stereo not shown) [CBK288250] | 108% | –
Cc1csc(NC(=O)Cc2ccccc2F)n1 [CBK288252] | 84.3% | –
O=C1c2ccccc2NC(c2cnc3ccccc3n2)N1O (stereo not shown) [CBK288357] | 84.7% | –
COc1ccccc1-c1cc(C(F)F)nc(S)c1C#N [CBK288358] | 88.8% | –
CCOc1cc(/C=N/O)c(Br)cc1O [CBK288359] | 87.4% | –
S=c1nccc(N2CCC(Cc3ccccc3)CC2)[nH]1 [CBK288361] | 112% | –
CCCOc1ccc(-c2cc(C(=O)NO)n[nH]2)cc1C [CBK288362] | 61.3% | –
O=c1cc(CO)oc(CN2CCCCCC2)c1O [CBK288363] | 97.7% | –
Fc1ccc(-n2c(C3CC3)n[nH]c2=S)cc1Cl [CBK288364] | 96.7% | –

SMILES | viability at 28.5 h, 10 µM | viability at 28.5 h, 10 µM (bulk resorufin, single well)
OCCCCn1c(-c2cccnc2)n[nH]c1=S [CBK288365] | 88.6% | –
O=C(NCCCN1CCOCC1)/C(=N\O)c1ccccn1 [CBK288366] | 94.1% | –
NCCCc1c(-c2ccc(Cl)cc2Cl)[nH][nH]c1=O [CBK288367] | 86.8% | –
CNC(=S)Nc1ncn(Cc2cccc(F)c2)n1 [CBK288368] | 106% | –
NC(=S)N1N=C2CCCCC2C1c1ccccc1 (stereo not shown) [CBK288371] | 84.2% | –
CC(C)CCC1(CN2CCCC2=O)C(=O)NC(=O)NC1=O [CBK288372] | 90.5% | –
CCN(CC)CCNC(=O)c1ccc(/C=N/O)nc1 [CBK288375] | 100% | –
O=C1c2ccccc2NC(c2ccccc2F)N1O (stereo not shown) [CBK288377] | 93.4% | –
N#Cc1cc2c([nH]c1=S)CCN(Cc1ccccc1)C2 [CBK288378] | 90.3% | –
COc1ccc(Cl)cc1-n1c(-c2ccc3ccccc3n2)n[nH]c1=S [CBK288382] | 95.4% | –
CC(=O)N1CCN(Cc2oc(C)cc(=O)c2O)CC1 [CBK288383] | 91.6% | –
Oc1ccccc1-c1n[nH]c(=S)n1-c1ccc(OC(F)(F)F)cc1 [CBK288384] | 85.9% | –
COc1cccc(NC(=O)c2cc3ccccc3o/c2=N\O)c1 [CBK288387] | 86% | –
CCOc1ccc(Cc2nnc(S)n2C2CC2)cc1OCC [CBK288388] | 66.4% | –
Cc1cccc(NC(=O)c2ccc3n[nH]c(=S)n3c2)c1 [CBK288389] | 88% | –
CC1(C)CC(=O)C(C(=S)Nc2ccccc2)=C(O)C1 [CBK288395] | 95.3% | –
Cc1ccc(C(=O)O)cc1NC(=S)NC1CC1 [CBK288397] | 94.4% | –
O=C1CNC(=S)N1c1cccc(C(F)(F)F)c1 [CBK288398] | 104% | –
O=C(Nc1ccccc1)N(O)CC(O)COc1ccccc1 (stereo not shown) [CBK288399] | 90.7% | –
O=c1cc(CO)oc(CN2CCSCC2)c1O [CBK288404] | 89% | –
O=C(/C=N/O)Nc1cc(C(F)(F)F)ccc1Cl [CBK288405] | 107% | –
CN(C)c1ccc(-c2[nH][nH]c(=O)c2CCCN)cc1 [CBK288406] | 105% | –
CCN(CC)CCNC(=O)/C(=N\O)c1ccccc1 [CBK288408] | 106% | –
Cn1c(=O)c2c(nc(S)n2CCCc2ccccc2)n(C)c1=O [CBK288411] | 105% | –
Sc1nnc(C2CCCC2)n1CC1CCCO1 (stereo not shown) [CBK288413] | 107% | –

SMILES | viability at 28.5 h, 10 µM | viability at 28.5 h, 10 µM (bulk resorufin, single well)
CCc1ccccc1NC(=S)Nc1cccc(C)n1 [CBK288415] | 103% | –
O=C(NCc1cccnc1)/C(=N\O)c1ccccc1 [CBK288416] | 102% | –
CNC(=S)NCc1nc(-c2ccc(C)cc2)no1 [CBK288418] | 97.3% | –
Cn1c(=O)c2c(=S)[nH]c(-c3ccccc3)nc2n(C)c1=O [CBK288422] | 103% | –
COCc1nnc(S)n1-c1cccc(OC)c1 [CBK288424] | 87.7% | –
S=C(Nc1nc2c(s1)CCCC2)NC1CC1 [CBK288425] | 90.1% | –
O=C1c2ccccc2NC(c2cccc(O)c2)N1O (stereo not shown) [CBK288426] | 98.2% | –
O=C(NCc1ccccc1)/C(=N\O)c1ccccc1 [CBK288427] | 91.9% | –
CC1CN(C)C(c2ccccc2)C(C)C12NC(=O)N=C2O (stereo not shown) [CBK288428] | 88.1% | –
O=C1NC(=O)C(CCc2ccncc2)(c2ccccc2)C(=O)N1 [CBK288431] | – | 96.9%
Sc1nnc(-c2cccc(Br)c2)o1 [CBK288432] | 101% | –
NC(=S)N1N=C(c2ccccc2)CC1c1ccccc1 (stereo not shown) [CBK288435] | 95.6% | –
COc1cccc(-c2cc3c(=S)[nH]ccn3n2)c1 [CBK288437] | 88% | –
COc1ccc(-c2cc3n[nH]c(=O)n3c(C)n2)cc1 [CBK288439] | 91.1% | –
Cc1cc(-c2c(C)n(-c3ccccc3)[nH]c2=O)n2ncnc2n1 [CBK288441] | 89.4% | –
O=C1CCCC2=C1C(c1ccccc1O)c1c([nH][nH]c1=O)N2 (stereo not shown) [CBK288442] | 90.2% | –
Cc1ccc(-c2n[nH]c(=O)o2)cc1Br [CBK288443] | 85.9% | –
O=C(O)CCCCCNC(=S)Nc1cccc(Cl)c1 [CBK288446] | 88.1% | –
COc1ccc(-c2[nH]c(=S)ncc2-c2ccccc2)c(O)c1 [CBK288447] | 91.5% | –
CC1(C)N=C(c2ccc(Cl)cc2Cl)C(=S)N1 [CBK288449] | 88.3% | –
CC(=O)NC(=S)Nc1ccc(Oc2ccccc2)cc1 [CBK288454] | 86.6% | –
O=C1NC(=O)C(c2ccccc2)(c2ccccn2)N1 (stereo not shown) [CBK288455] | 97% | –
COc1ccc(CCNC(=O)C(N)=O)cc1OC [CBK288457] | 90.9% | –
O=c1[nH]nc2c(S(=O)(=O)N3CCCC3)cccn12 [CBK288460] | 85.9% | –
Cc1cc(N2C(=O)NS(=O)(=O)c3cccnc32)ccc1F [CBK288461] | 90.5% | –

SMILES | viability at 28.5 h, 10 µM | viability at 28.5 h, 10 µM (bulk resorufin, single well)
NS(=O)(=O)c1ccc(CCNCC2CCCCC2)cc1 [CBK288467] | 92.5% | –
O=C1/C(=N\O)c2cc(Cl)ccc2N1Cc1ccccc1 [CBK288468] | 91.5% | –
CCOc1ccc(-c2ccc(C#N)c(=S)[nH]2)cc1 [CBK288470] | 88.2% | –
NC(=O)C(=O)c1cn(Cc2ccccc2)c2ccccc12 [CBK288473] | – | 96.2%
Cc1ccccc1C(=O)NC(=S)NCCN1CCOCC1 [CBK288475] | 94.5% | –
COc1ccccc1CNc1ccc(S(N)(=O)=O)cc1 [CBK288476] | 92.7% | –
CC(C)(C)OC(=O)N1CCC2(CC1)N=C(c1ccccc1)C(=S)N2 [CBK288478] | 112% | –
O=c1[nH]nc2cc(NCc3ccc(Cl)cc3)ncn12 [CBK288479] | 114% | –
CN(CCCNC(=O)/C=N/O)CCCC(C)(C)C [CBK288480] | 110% | –
O=C1/C(=N\O)c2ccccc2N1Cc1ccccc1 [CBK288484] | 99.7% | –
CCc1ccc(-c2cc3c(=O)[nH]nc(S)n3n2)cc1 [CBK288485] | 124% | –
S=c1[nH]cnc2c1[nH]c1ccc(Br)cc12 [CBK288487] | 102% | –
Cn1c(=S)[nH]c2c(-c3ccccc3)c[nH]c2c1=O [CBK288488] | 103% | –
CCCCC(=O)Nc1ccc(S(N)(=O)=O)cc1 [CBK288490] | 113% | –
CCCOc1ccc(Br)cc1/C=N/O [CBK288491] | 110% | –
O=C(NC(=S)N1C[C@@H]2C[C@@H](C1)c1cccc(=O)n1C2)c1ccco1 [CBK288492] | 110% | –
N#CC1C(=S)NC2=C(CCCC2)C12CCCCC2 (stereo not shown) [CBK288493] | 103% | –
COc1ccccc1CN1CCc2[nH]c(=S)[nH]c(=O)c2C1 [CBK288495] | 104% | –
S=c1cc(SCc2ccccc2Cl)nc[nH]1 [CBK288496] | 95.2% | –
O=C(O)c1ccc(COc2cccc(/C=N\O)c2)cc1 [CBK288501] | 91.9% | –
Cc1nnc(S)n(Cc2ccc(F)cc2)c1=O [CBK288502] | 106% | –
COCc1cc2n[nH]c(=O)n2c(-c2ccccc2)n1 [CBK288507] | 98.3% | –
O=c1[nH]nc2c(Sc3cccc(F)c3)nccn12 [CBK288508] | 90.4% | –
CCN(CC)CCOC(=O)NS(=O)(=O)c1ccc(Cl)cc1 [CBK288510] | 97.6% | –
O=C(CCCCCN1C(=O)c2ccccc2C1=O)NO [CBK288514] | 80.2% | –
